The IC50 is the midpoint of a concentration-inhibition curve. Read a low IC50 as higher potency.

The structures appear in SMILES notation.

We go through seven molecules from US20250262222A1, “HETEROCYCLIC COMPOUNDS, COMPOSITIONS THEREOF, AND METHODS OF TREATMENT THEREWITH” (BeiGene Switzerland GmbH, priority 2022, published 2025).

This test concerns pERK1/2(THR202/TYR204) level in AsPC-1 cell line. Put plainly: KRAS G12D pERK assay. It is filed as cell-based. The note with it: Homo sapiens, ASPC1, 2 h, AsPC-1 cells, 2 h compound treatment, HTRF. As for the experimental part:
AsPC-1 cell line was used in this study. Cells were maintained in RPMI-1640 supplemented with 10% fetal bovine serum (Thermo Fisher), 50 units/mL penicillin and streptomycin (Thermo Fisher) and kept at 37° C. in a humidified atmosphere of 5% CO2 in air. Cells were reinstated from frozen stocks that were laid down within 30 passages from the original cells purchased. 30000 cells per well were seeded into a 96-well plate and incubated overnight. Cells were treated with a 10-point dilution series. The final compound concentration is from 0 to 10 μM. After 2 h compound treatment, cells were lysed, and the pERK1/2(THR202/TYR204) level in the cell lysates was detected by HTRF kit (Cisbio). In brief, a total of 16 μL of cell lysate from each well of a 96-well plate was transferred to a 384-well white assay plate. Lysate from each well was incubated with 2 μL of Eu3+-cryptate (donor) labeled anti-phospho-ERK1/2 and 2 μL of D2 (acceptor) labeled anti-phospho-ERK1/2 antibodies (Cisbio) overnight in dark at room temperature. When donor and acceptor are in close proximity, excitation of the donor with laser triggers a Fluorescence Resonance Energy Transfer (FRET) towards the acceptor, which in turn fluoresces at 655 nm wavelength. FRET signals were measured using a PHERAstar FSX reader (BMG Labtech). IC50 determination was performed by fitting the curve of percent inhibition versus the log of the inhibitor concentration using Dotmatics.
A general note: Time-resolved FRET reads energy transfer from a long-lived donor to a nearby acceptor.
For the molecule `Nc1cc(Cl)c(C(F)(F)F)c(-c2nc3c4c(nc(OCC56CCC(COC5)C6)nc4c2F)N2C[C@H]4CC[C@H](N4)[C@H]2CCO3)c1` [Example 45, 3-((6aR,7S,10R)-13-((3-oxabicyclo[3.2.1]octan-1-yl)methoxy)-1-fluoro-5,6,6a,7,8,9,10,11-octahydro-4-oxa-3,11a,12,14,15-pentaaza-7,10-methanocyclohepta[4,5]cyclo-octa[1,2,3-de]naphthalen-2-yl)-5-chloro-4-(trifluoromethyl)aniline], the IC50 turned out to be 221 nM.

Take `COCC12CC(COc3nc4c5c(nc(-c6cc(N)cc(Cl)c6C(F)(F)F)c(F)c5n3)OCC[C@@H]3[C@@H]5CC[C@H](CN43)N5)(CO1)C2` [Example 39, 3-chloro-5-((6aR,7S,10R)-1-fluoro-13-((1-(methoxymethyl)-2-oxabicyclo[2.1.1]hexan-4-yl)methoxy)-5,6,6a,7,8,9,10,11-octahydro-4-oxa-3,11a,12,14,15-pentaaza-7,10-methanocyclohepta[4,5]cyclo-octa[1,2,3-de]naphthalen-2-yl)-4-(trifluoromethyl)aniline]: 409 nM corresponded to half-maximal inhibition (IC50).

`Nc1cc(Cl)c(C(F)(F)F)c(-c2nc3c4c(nc(OCC56COCC(F)(C5)C6)nc4c2F)N2C[C@H]4CC[C@H](N4)[C@H]2CCO3)c1` [Example 37, 3-chloro-5-((6aR,7S,10R)-1-fluoro-13-((5-fluoro-3-oxabicyclo[3.1.1]heptan-1-yl)methoxy)-5,6,6a,7,8,9,10,11-octahydro-4-oxa-3,11a,12,14,15-pentaaza-7,10-methanocyclohepta[4,5]cyclo-octa[1,2,3-de]naphthalen-2-yl)-4-(trifluoromethyl)aniline] showed a 50% inhibitory concentration (IC50) of 97 nM.

As for `Cc1cc(N)cc(-c2nc3c4c(nc(OCC56COC(C)(C5)C6)nc4c2F)N2C[C@H]4CC[C@H](N4)[C@H]2CCO3)c1C(F)(F)F` [Example 28, 3-((6aR,7S,10R)-1-fluoro-13-((1-methyl-2-oxabicyclo[2.1.1]hexan-4-yl)methoxy)-5,6,6a,7,8,9,10,11-octahydro-4-oxa-3,11a,12,14,15-pentaaza-7,10-methanocyclohepta[4,5]cyclo-octa[1,2,3-de]naphthalen-2-yl)-5-methyl-4-(trifluoromethyl)aniline], the IC50 worked out at 152 nM.

The molecule `C[C@](O)(COc1nc2c3c(nc(-c4cc(N)cc(Cl)c4C(F)(F)F)c(F)c3n1)OCC[C@@H]1[C@@H]3CC[C@H](CN21)N3)C(F)(F)F` [Example 44, (S)-3-(((6aR,7S,10R)-2-(5-amino-3-chloro-2-(trifluoromethyl)phenyl)-1-fluoro-5,6,6a,7,8,9,10,11-octahydro-4-oxa-3,11a,12,14,15-pentaaza-7,10-methanocyclohepta[4,5]cyclo-octa[1,2,3-de]naphthalen-13-yl)oxy)-1,1,1-trifluoro-2-methylpropan-2-ol] had an IC50 of 2220 nM. This IC50 lies about 15-fold higher than the previous one.

`Nc1cc(Cl)c(C(F)(F)F)c(-c2nc3c4c(nc(OC[C@@]56CCCN5C[C@H](F)C6)nc4c2F)N2C[C@H]4CC[C@H](N4)[C@H]2CO3)c1` [Example 17, 3-chloro-5-((5aS,6S,9R)-1-fluoro-12-(((2R,7aS)-2-fluorotetrahydro-1H-pyrrolizin-7a(5H)-yl)methoxy)-5a,6,7,8,9,10-hexahydro-5H-4-oxa-3,10a,11,13,14-pentaaza-6,9-methanonaphtho[1,8-ab]heptalen-2-yl)-4-(trifluoromethyl)aniline] yielded an IC50 of 11 nM.

`CC12CCC(COc3nc4c5c(nc(-c6cc(N)cc(Cl)c6C(F)(F)F)c(F)c5n3)OCC[C@@H]3[C@@H]5CC[C@H](CN43)N5)(CO1)C2` [Example 36, 3-chloro-5-((6aR,7S,10R)-1-fluoro-13-((1-methyl-2-oxabicyclo[2.2.1]heptan-4-yl)methoxy)-5,6,6a,7,8,9,10,11-octahydro-4-oxa-3,11a,12,14,15-pentaaza-7,10-methanocyclohepta[4,5]cyclo-octa[1,2,3-de]naphthalen-2-yl)-4-(trifluoromethyl)aniline] came in with an IC50 of 106 nM.
